Where two headings read alike, the source gives them in different places.
Tests used:
[1] = cited from earlier work; for N–H BDE: in water ref 48
[2] = Ferric reducing/antioxidant power (FRAP assay); type: biochemical; design: key to FRAP: –: Very low activity; settings: means ± standard deviation; absorbance at 593 nm
Description: The FRAP method was carried out according to previously described procedures with some modifications to be compatible with an assay on a 96-well microplate. All tests were done in triplicate, while the obtained results were averaged and reported as Fe^2+ equivalents (Fe^2+ µmol).
By using the FRAP assay, we investigated the reducing power of investigated systems, which was monitored by the corresponding changes in the absorbance at 593 nm. This method is based on the ability of systems to reduce the ferric tripyridyl triazine complex (TPTZ) to the ferrous state (Fe^2+), which can be seen by an intense blue color. […] Good reducing ability was shown by the trimethoxy substituted benzimidazole-2-carboxamide 14 bearing the amino group (1102.5 ± 14.1 mmolFe^2+/mmolC).

[3] = DPPH free radical scavenging; type: biochemical; design: key to DPPH IC50: –: Very low activity; settings: after 30 min of incubation with 100 μM DPPH
Description: The reducing activity of investigated systems was achieved by the DPPH method according to previously described procedures with modifications to assure the use in a 96-well microplate. Briefly, equal volumes of various concentrations of tested molecules (dissolved in DMSO) were added to the solution of DPPH (final concentration 50 µM in absolute ethanol). Ethanol and DMSO were used as control solutions in line with earlier reports.

[4] = system: HEK 293 (human embryonic kidney cells); assay: Cytotoxic activity on non-cancerous cells (MTT assay); type: cell-based; settings: Homo sapiens, HEK293; non-tumor cell line; 72 h incubation, MTT; concentration that causes 50% growth inhibition
Description: (§1) The experiments were performed on four human cell lines, including HCT 116 (colon carcinoma), H 460 (lung carcinoma), MCF-7 (breast carcinoma), and HEK 293 (human embryonic kidney cells), in line with previously published experimental procedures. Briefly, the cells were grown in DMEM medium with the addition of 10% fetal bovine serum (FBS), 2 mM L-glutamine, 100 U/mL penicillin, and 100 µg/mL streptomycin, and cultured as monolayers at 37 °C in a humidified atmosphere with 5% CO2. Cells were seeded at 2 × 10^3 cells/well in a standard 96-well microtiter plates and left to attach for 24 h. The next day, a test compound was added in five serial 10-fold dilutions. The rate of cell growth was evaluated after 72 h of incubation with MTT assays. The obtained results are expressed as IC50 values, calculated from the concentration-response curve using linear regression analysis by fitting the test concentrations that give PG values above and below the reference value (i.e., 50%). Each test was performed in quadruplicate in at least two individual experiments.

MCF-7 (breast carcinoma) = assay: Antiproliferative activity in vitro (MTT assay); type: cell-based, human; settings: 72 h incubation, concentration that causes 50% growth inhibition
Description: as §1

H 460 (lung carcinoma) = assay: Antiproliferative activity in vitro (MTT assay); type: cell-based, human; settings: 72 h incubation, concentration that causes 50% growth inhibition
Description: as §1

[5] = system: HCT 116 (colon carcinoma); assay: Antiproliferative activity in vitro (MTT assay); type: cell-based, human; settings: 72 h incubation, concentration that causes 50% growth inhibition, read-out: IC50 HCT116
Description: as §1

| SMILES | calculated BDE lower than that for its 1,3,5-trihydroxy analogue ([1]; in toluene ref 46) | N–H BDE [1] | FRAP [2] | DPPH IC50 [3] | IC50 [4] | IC50 (MCF-7 (breast carcinoma); Homo sapiens, MCF7, 72 h) | IC50 (H 460 (lung carcinoma); Homo sapiens, NCI-H460, 72 h) | IC50 ([5]; Homo sapiens, HCT-116, 72 h) | IC50 [3] | IC50 (MCF-7 (breast carcinoma)) | IC50 (H 460 (lung carcinoma)) | IC50 [5] |
| --- | --- | --- | --- | --- | --- | --- | --- | --- | --- | --- | --- | --- |
| Oc1cccc(O)c1O [1,2,3-trihydroxybenzene] | 15 kcal mol^−1 |  |  |  |  |  |  |  |  |  |  |  |
| COc1ccc(N)cc1 [4-OMe-aniline] |  | 87.2 kcal/mol |  |  |  |  |  |  |  |  |  |  |
| N#Cc1ccc(N)cc1 [Compound 4-CN-aniline, 4-CN-aniline] |  | 91.8 kcal/mol |  |  |  |  |  |  |  |  |  |  |
| COc1ccccc1C(=O)Nc1nc2ccc([N+](=O)[O-])cc2[nH]1 [Compound 6, 2-methoxy-N-[5(6)-nitrobenzimidazol-2-yl]benzamide] |  |  | 123.5 ± 2.8 mmolFe^2+/mmolC | – ^c | 3 ± 0.6 µM | 4 ± 0.3 µM | 6 ± 5 µM | 6 ± 1 µM |  |  |  |  |
| COc1ccc(C(=O)Nc2nc3ccc([N+](=O)[O-])cc3[nH]2)c(OC)c1 [Compound 7, 2,4-dimethoxy-N-[5(6)-nitrobenzimidazol-2-yl]benzamide] |  |  | 139.6 ± 16.9 mmolFe^2+/mmolC | – | 2 ± 0.3 µM | 2 ± 0.9 µM | 4 ± 2 µM | 3 ± 0.2 µM |  |  |  |  |
| COc1ccccc1C(=O)Nc1nc2ccc([N+](=O)[O-])cc2s1 [Compound 9, 2-methoxy-N-(6-nitrobenzothiazol-2-yl)benzamide] |  |  | 6.7 ± 0.6 mmolFe^2+/mmolC | – |  | 9 ± 1 µM | 46 ± 3 µM | 44 ± 25 µM |  |  |  |  |
| COc1ccc(C(=O)Nc2nc3ccc([N+](=O)[O-])cc3s2)c(OC)c1 [Compound 10, 2,4-dimethoxy-N-(6-nitrobenzothiazol-2-yl)benzamide] |  |  | – | – | 5 ± 1 µM | 5 ± 2 µM | 20 ± 3 µM | 9 ± 7 µM |  |  |  |  |
| COc1cc(C(=O)Nc2nc3ccc([N+](=O)[O-])cc3s2)cc(OC)c1OC [Compound 11, 3,4,5-trimethoxy-N-(6-nitrobenzothiazol-2-yl)benzamide] |  |  | 155.5 ± 3.0 mmolFe^2+/mmolC | – |  | 17 ± 9 µM | 23 ± 4 µM | 37 ± 0.8 µM |  |  |  |  |
| COc1ccccc1C(=O)Nc1nc2ccc(N)cc2[nH]1 [Compound 12, N-[5(6)-aminobenzimidazol-2-yl]-2-methoxybenzamide] |  |  | 256.3 ± 2.8 mmolFe^2+/mmolC |  |  |  | 39 ± 11 µM | 48 ± 4 µM | 28.9 ± 1.03 µM | 53 ± 9 µM |  |  |
| COc1ccc(C(=O)Nc2nc3ccc(N)cc3[nH]2)c(OC)c1 [Compound 13, N-[5(6)-aminobenzimidazol-2-yl]-2,4-dimethoxybenzamide] |  |  | 238.4 ± 2.1 mmolFe^2+/mmolC |  |  | 20 ± 4 µM |  |  | 17.7 ± 2.81 µM |  | 24 ± 8 µM | 17 ± 8 µM |
| COc1ccccc1C(=O)Nc1nc2ccc(N)cc2s1 [Compound 15, N-(6-aminobenzothiazol-2-yl)-2-methoxybenzamide] |  |  | 163.4 ± 4.7 mmolFe^2+/mmolC | – |  | 3 ± 2 µM | 3 ± 0.9 µM | 6 ± 4 µM |  |  |  |  |
| COc1ccc(C(=O)Nc2nc3ccc(N)cc3s2)c(OC)c1 [Compound 16, N-(6-aminobenzothiazol-2-yl)-2,4-dimethoxybenzamide] |  |  | 203.6 ± 5.8 mmolFe^2+/mmolC | – | 11 ± 8 µM | 5 ± 0.3 µM | 43 ± 29 µM | 6 ± 1 µM |  |  |  |  |
| COc1cc(C(=O)Nc2nc3ccc(N)cc3s2)cc(OC)c1OC [Compound 17, N-(6-aminobenzothiazol-2-yl)-3,4,5-trimethoxybenzamide] |  |  | 235.4 ± 2.8 mmolFe^2+/mmolC |  |  |  |  | 28 ± 4 µM | 40.4 ± 0.4 µM | 5 ± 3 µM | ≥ 100 µM |  |
